Data set [1] relates to HCV replicon (Clone A cells, Huh7, subgenomic hepatits C virus RNA). The data set is described as follows: HCV Neo screening assay (HCV replicon, NPTII ELISA). Format: cell-based, hepatitis C virus. The note with it: for EC50 / inhibition at 25 µM: Hepatitis C virus, Huh-7; for EC50: Secondary Data, HCV; for inhibition at 25 µM: primary screening, 25 μM final concentration, 24 hours, percent inhibition of viral replication, read-out: HCV Inh; for HCV TI: therapeutic index CC50/EC50, HCV. (In general: Replicon systems follow genome replication, usually without infectious particles.)

Another data set has as its system RSV minigenome. Nature of the data set: RSV minigenome-dependent β-galactosidase expression assay (RSV β-Gal). Format: cell-based, respiratory syncytial virus. To be noted: for EC50 / inhibition at 25 µM: human respiratory syncytial virus; for EC50: Secondary Data, RSV, read-out: RSV EC50; for inhibition at 25 µM: primary screening, 25 μM final concentration, 24 hours, percent inhibition of viral replication, read-out: RSV Inh; for RSV TI: therapeutic index CC50/EC50, RSV.

In a further data set the test system is WNV (WN-hRuPac cells). Nature of the data set: WNV antiviral activity, WN-hRuPac cells, Renilla luciferase. The format is cell-based, West Nile virus. To be noted: for EC50 / inhibition at 25 µM: West Nile virus; for EC50: Secondary Data, WNV, read-out: WNV EC50; for inhibition at 25 µM: primary screening, 25 μM final concentration, 24 hours, percent inhibition of viral replication, read-out: WNV Inh; for WNV TI: therapeutic index CC50/EC50, WNV.

A further data set concerns YFV (YF-hRuPac cells). Nature of the data set: microbe, parasite or virus in culture. The note with it: for inhibition at 25 µM / EC50: Yellow fever virus; for inhibition at 25 µM: 24 h, read-out: YFV Inh; for EC50: read-out: YFV EC50. The format is cell-based, yellow fever virus.
Another data set concerns DNG (D2-hRuPac cells). The data set is described as follows: DNG antiviral activity, D2-hRuPac cells, Renilla luciferase. The format is cell-based, Dengue fever virus. To be noted: Dengue virus, secondary screening.
A further data set concerns EBOV minigenome. Nature of the data set: microbe, parasite or virus in culture. Format: cell-based, Ebola virus. The note with it: Zaire ebolavirus; for inhibition at 25 µM: 24 h, read-out: EBOV Inh; for EC50: read-out: EBOV EC50.
Another data set deals with SINV (SR19-F-luc cells). Nature of the data set: SINV antiviral activity, SR19-F-luc cells, Firefly luciferase. To be noted: Sindbis virus; for inhibition at 25 µM: primary screening, 25 μM final concentration, 24 hours, percent inhibition of viral replication, read-out: SINV Inh; for EC50: secondary screening, SR19-F-luc cells. The format is cell-based.

Molecules are shown by their SMILES. Bounds are passed on as bounds.

Consider `COC(=O)c1ccc(Nc2c3c(nc4ccccc24)CCC3)cc1` [Compound 8], for which the EC50 in data set [1] turned out to be 0.13 µM; with RSV minigenome it was 9.7 µM; with WNV (WN-hRuPac cells), 59.1 µM; in the data set on YFV (YF-hRuPac cells), 25.8 µM; in the data set on DNG (D2-hRuPac cells) it was 61.5 µM; in the data set with EBOV minigenome, 54.5 µM. The same molecule returned an EC50 in the data set with SINV (SR19-F-luc cells) of 24.2 µM. Also, the inhibition at 25 µM is 98.9% in data set [1]; 75.5% with RSV minigenome; 49% with WNV (WN-hRuPac cells); 66.8% with YFV (YF-hRuPac cells); 4.74% in the data set on EBOV minigenome; 34.9% in the data set on SINV (SR19-F-luc cells). For the same molecule, the “HCV TI” value in data set [1] turned out to be 550.77. Moreover, the “RSV TI” value with RSV minigenome amounted to 7.73. In addition, the “WNV TI” value with WNV (WN-hRuPac cells) was 1.27. Moreover, in the data set on YFV (YF-hRuPac cells), the “YFV TI” value was 2.91. The CC50 in “in vitro” (DNG CC50) was at least 75 µM; in “in vitro” (EBOV CC50) it was at least 75 µM; in “in vitro” (HCV CC50), 71.6 µM; in “in vitro” (RSV CC50), at least 75 µM; in “in vitro” (SINV CC50) it was at least 75 µM; in the data set “in vitro” (WNV CC50), at least 75 µM. Further, the CC50 in the data set “in vitro” (YFV CC50) was at least 75 µM.
Regarding `Cc1ccc(Nc2cc(C)nc3c2ccc2ccccc23)cc1` [Compound 9], the EC50 in data set [1] was 1.77 µM; in the data set on RSV minigenome, 4.1 µM; in the data set with WNV (WN-hRuPac cells), 30.6 µM; with YFV (YF-hRuPac cells), 5.4 µM; with DNG (D2-hRuPac cells), at least 75 µM; with EBOV minigenome, 61.5 µM. Moreover, the EC50 in the data set on SINV (SR19-F-luc cells) was at least 75 µM. Moreover, the inhibition at 25 µM in data set [1] was 98.3%; in the data set with RSV minigenome, 88.2%; in the data set with WNV (WN-hRuPac cells), 33.4%; in the data set on YFV (YF-hRuPac cells), 76.2%; in the data set on EBOV minigenome, -17.1%; in the data set on SINV (SR19-F-luc cells) it was 48.2%. The “HCV TI” value in data set [1] came to 5.55. In addition, the “RSV TI” value with RSV minigenome was 17.8. For the same molecule, in the data set with WNV (WN-hRuPac cells), the “WNV TI” value is 2.38. Besides, in the data set with YFV (YF-hRuPac cells), the “YFV TI” value is given as 13.51. In addition, the CC50 in the data set “in vitro” (DNG CC50) was determined as 73 µM; in “in vitro” (EBOV CC50) it was 73 µM; in “in vitro” (HCV CC50), 9.83 µM; in the data set “in vitro” (RSV CC50), 73 µM; in “in vitro” (SINV CC50), 73 µM; in “in vitro” (WNV CC50), 73 µM. The CC50 in “in vitro” (YFV CC50) was determined as 73 µM.
On to `c1coc(CNc2c3c(nc4ccccc24)CCC3)c1` [Compound 10], for which the inhibition at 25 µM came out at 34.6% in data set [1]; 99.6% with RSV minigenome; 81.2% in the data set on WNV (WN-hRuPac cells); 86.2% in the data set on YFV (YF-hRuPac cells); 38.1% with EBOV minigenome; 15.9% in the data set on SINV (SR19-F-luc cells). Moreover, the EC50 amounted to 2.51 µM with RSV minigenome; 9.79 µM in the data set with WNV (WN-hRuPac cells); 14.4 µM with YFV (YF-hRuPac cells); 24.7 µM with DNG (D2-hRuPac cells); 43.2 µM in the data set with EBOV minigenome; 69.9 µM with SINV (SR19-F-luc cells). Also, the “RSV TI” value with RSV minigenome turned out to be 23.29. Moreover, in the data set on WNV (WN-hRuPac cells), the “WNV TI” value is 5.97. The “YFV TI” value in the data set on YFV (YF-hRuPac cells) was 4.06. Besides, the CC50 was determined as 58.5 µM in the data set “in vitro” (DNG CC50); 58.5 µM in “in vitro” (EBOV CC50); 47.6 µM in “in vitro” (HCV CC50); 58.5 µM in the data set “in vitro” (RSV CC50); 58.5 µM in the data set “in vitro” (SINV CC50); 58.5 µM in “in vitro” (WNV CC50). The molecule further registered a CC50 in the data set “in vitro” (YFV CC50) of 58.5 µM.
For the molecule `C=CCNc1c2c(nc3ccccc13)CCC2` [Compound 12], the inhibition at 25 µM in data set [1] amounted to 10.3%; in the data set with RSV minigenome, 31%; in the data set with WNV (WN-hRuPac cells), 47.5%; in the data set on YFV (YF-hRuPac cells) it was 31.3%; in the data set on EBOV minigenome, 49.8%; in the data set on SINV (SR19-F-luc cells) it was 69.4%. In addition, the EC50 came out at 6.42 µM with RSV minigenome; 19.5 µM in the data set on WNV (WN-hRuPac cells); 61.2 µM in the data set with YFV (YF-hRuPac cells); 69.2 µM in the data set on DNG (D2-hRuPac cells); 45.4 µM in the data set with EBOV minigenome; 6.89 µM in the data set on SINV (SR19-F-luc cells). Further, the “RSV TI” value with RSV minigenome is listed as 11.17. Also, the “WNV TI” value in the data set on WNV (WN-hRuPac cells) is listed as 3.68. Also, in the data set with YFV (YF-hRuPac cells), the “YFV TI” value stood at 1.17. Also, the CC50 in the data set “in vitro” (DNG CC50) stood at 71.7 µM; in the data set “in vitro” (EBOV CC50), 71.7 µM; in “in vitro” (HCV CC50), 71 µM; in the data set “in vitro” (RSV CC50), 71.7 µM; in the data set “in vitro” (SINV CC50) it was 71.7 µM; in “in vitro” (WNV CC50) it was 71.7 µM. Further, the CC50 in the data set “in vitro” (YFV CC50) was 71.7 µM.

In general, EC50 refers to the concentration needed to bring the measured effect to its halfway point.

The values above are taken from patent publication US20090221624A1, “4-AMINOQUINOLINE COMPOUNDS FOR TREATING VIRUS-RELATED CONDITIONS” (priority 2005, published 2009).
